Where a SMILES comes first, the peptide text is derived from it. The star is where a group is joined. Palmitoyl = CCCCCCCCCCCCCCCC(=O)*
Tests used:
[1] = test system: human red blood cells (hRBCs); assay: Hemolysis assay; format: cell-based; settings: peptide concentration causing 50% hemolysis; 4% (v/v) hRBCs in PBS, 1 h, 37 °C, absorbance 540 nm, triplicate
Procedure: The hemolysis assay was performed by using the method reported previously. Fresh human red blood cells (hRBCs) with anticoagulant (EDTA) were rinsed three times with a PBS by centrifugation at 800× g for 10 min and diluted with PBS. The lipopeptides were serially diluted on a 96-well microtiter polystyrene plate and hRBCs were added up to a final volume of 100 μL. The peptide concentration ranged between 0.5 and 256 μg/mL and the final hRBCs concentration was 4% (v/v). Controls for zero hemolysis (blank) and 100% hemolysis consisted of hRBCs suspended in PBS and 1% of Triton-X 100, respectively. The plate was incubated for 1 h at 37 °C and then centrifuged (800× g, 10 min, 4 °C). Subsequently, the supernatant was […] to new microtiter plates and the absorbance at 540 nm was measured. All experiments were conducted in triplicate. HC50 was calculated using an ic50.tk tool. Protocol of the study received approval from the local Bioethics Committee at the Medical University of Gdańsk (NKBBN/262/2019, approval date: 10 June 2019).

[2] = test system: Candida lipolytica PCM 2680-FY; format: cell-based; settings: 24 h
Procedure: (§1) The Staphylococcus aureus ATCC 25923, Staphylococcus epidermidis ATCC 14990, Escherichia coli ATCC 25922, Pseudomonas aeruginosa ATCC 9027, Candida albicans ATCC 10231, Candida glabrata ATCC 15126, Candida lipolytica PCM 2680-FY, and Candida tropicalis PCM 2709-FY strains were acquired from the Polish Collection of Microorganisms (PCM, Polish Academy of Sciences, Wrocław, Poland) and from the American Type Culture Collection (ATCC). All the strains were stored at −80 °C in Roti-Store cryo vials and before the tests were transferred into fresh Mueller–Hinton broth (MHB, Biocorp, Warsaw, Poland) for bacteria or RPMI-1640 (Sigma-Aldrich, Steinheim, Germany) for fungi and incubated for 24 h at 37 °C. Then, the cultures were seeded on Mueller–Hinton agar (BioMaxima, Lublin, Poland) or Sabouraud dextrose agar (SDA, BioMaxima, Lublin, Poland) plates, respectively, and incubated as just mentioned. These agar cultures were used for further microbiological assays. Cell densities for all assays were adjusted spectrophotometrically (Multiskan GO Microplate Spectrophotometer, Thermo Fisher Scientific, Vantaa, Finland) at 600 and 660 nm for bacteria and fungi, respectively.
(§2) The assay was performed to evaluate the effect of the lipopeptides in preventing biofilm formation. The preparation of inoculums was followed by a ca. 500-fold dilution of the 24 h cultures of microorganisms. Briefly, 50 μL of the compounds in the concentration range, diluted in appropriate medium, were prepared on 96-well polystyrene flat-bottom plates. Subsequently, the 50 μL of the bacterial/fungal inoculums were added to reach the same microbial density as that in the MBEC assay. After 24 h of incubation at 37 °C, the wells were rinsed three times with PBS and the fresh media with resazurin (4 g/L) were added. The MBICs were read after 1 h. All experiments were conducted in triplicate.

[3] = test system: Staphylococcus aureus ATCC 25923; format: cell-based; settings: ATCC 25923, 24 h
Procedure: as §1, §2

[4] = test system: Staphylococcus epidermidis ATCC 14990; format: cell-based; settings: ATCC 14990, 24 h
Procedure: as §1, §2

[5] = test system: Pseudomonas aeruginosa ATCC 9027; format: cell-based; settings: ATCC 9027, 24 h
Procedure: as §1, §2

[6] = test system: Candida albicans ATCC 10231; format: cell-based; settings: ATCC 10231, 24 h
Procedure: as §1, §2

[7] = test system: Escherichia coli ATCC 25922; format: cell-based; settings: ATCC 25922, 24 h
Procedure: as §1, §2

[8] = test system: Candida tropicalis PCM 2709-FY; format: cell-based; settings: PCM 2709-FY, 24 h
Procedure: as §1, §2

[9] = test system: Candida glabrata ATCC 15126; format: cell-based; settings: ATCC 15126, 24 h
Procedure: as §1, §2

[10] = RP-HPLC determination of peptide hydrophobicity; format: physicochemical; settings: RP-HPLC retention as measure of hydrophobicity; Waters X-Bridge Shield RP-18 3.0 × 100 mm, 3.5 μm; linear 20–65% acetonitrile in water over 30 min, 0.1% TFA, 0.5 mL/min, 25.0 °C, UV 214 nm; 1 g/L; triplicate
Procedure: The peptides were analyzed by RP-HPLC to determine relative hydrophobicity vs. retention time of each compound. In general, more hydrophobic lipopeptides will elute later than hydrophilic ones. Using this simple rule enables comparison of hydrophobicity by reduced retention times (t’R) and differences in retention time between the cyclic analog and its linear parent lipopeptide (Table 1). It can be deduced that the presence of cystine moiety has led to increased hydrophobicity. All cyclic lipopeptides are more hydrophobic than their linear counterparts but the effect of disulfide cyclization on retention is different in each pair. The highest increase in retention was noticed for the shortest lipopeptides L1 (C16-KKK-NH2) and C1 (C16-CKKKC-NH2). The differences between lipopeptides with one arginine residue indicate that its position is crucial for retention and therefore hydrophobicity. To learn how the arginine position affects hydrophobicity, the retention time of compound L2 (C16-KKKK-NH2) or C2 (C16-CKKKKC-NH2) was subtracted from that of the lipopeptides with one arginine residue, linear (L3, L4, L5, L6) or cyclic (C3, C4, C5, C6), respectively. In Figure 2 the effect of arginine position on retention time is related to unsubstituted lipopeptide.
To determine peptide hydrophobicity, a Waters Alliance e2695 system with a Waters 2998 PDA Detector (software-Empower 3, Waters, Milford, MA, USA) was used. All analyses were carried out on a Waters X-Bridge Shield RP-18 column (3.0 × 100 mm, 3.5 μm particle size, 130 Å pore size). The Shield Technology column with embedded polar groups was used to minimize interactions of unreacted silanol groups with basic lipopeptides. The peptides were dissolved in water (0.1% TFA, v/v) up to a concentration of 1 g/L. UV detection at 214 nm was used, and samples (10 μL) were eluted with a linear 20–65% acetonitrile gradient in deionized water over 30 min at 25.0 ± 0.1 °C. The mobile phase flow rate was 0.5 mL/min. Both eluents contained 0.1% (v/v) of TFA. Each peptide sample was analyzed in triplicate. Maximum standard deviation and coefficient of variation were 0.042 and 0.25%, respectively.

CCCCCCCCCCCCCCCC(=O)N[C@@H](CCCCN)C(=O)N[C@@H](CCCCN)C(=O)N[C@@H](CCCCN)C(=O)N[C@@H](CCCCN)C(N)=O [L2, C16-KKKK-NH2] (Palmitoyl-KKKK-NH2)
HC50 [1]: 105.9 ± 8.0 µg/mL | MBIC C. lipolytica [2]: 32 µg/mL | MBIC S. aureus [3]: 32 µg/mL | MBIC S. epidermidis [4]: 16 µg/mL | MBIC P. aeruginosa [5]: 64 µg/mL | MBIC C. albicans [6]: 128 µg/mL | MBIC E. coli [7]: 32 µg/mL | MBIC C. tropicalis [8]: 16 µg/mL | MBIC C. glabrata [9]: 128 µg/mL | reduced retention time t’R [10]: 14.77 min

CCCCCCCCCCCCCCCC(=O)N[C@@H](CCCNC(=N)N)C(=O)N[C@@H](CCCCN)C(=O)N[C@@H](CCCCN)C(=O)N[C@@H](CCCCN)C(N)=O [L3, C16-RKKK-NH2] (Palmitoyl-RKKK-NH2)
HC50 [1]: 79.1 ± 6.1 µg/mL | MBIC C. lipolytica [2]: 16 µg/mL | MBIC S. aureus [3]: 32 µg/mL | MBIC S. epidermidis [4]: 16 µg/mL | MBIC P. aeruginosa [5]: 64 µg/mL | MBIC C. albicans [6]: 64 µg/mL | MBIC E. coli [7]: 32 µg/mL | MBIC C. tropicalis [8]: 16 µg/mL | MBIC C. glabrata [9]: 64 µg/mL | reduced retention time t’R [10]: 15.21 min

CCCCCCCCCCCCCCCC(=O)N[C@@H](CCCCN)C(=O)N[C@@H](CCCNC(=N)N)C(=O)N[C@@H](CCCCN)C(=O)N[C@@H](CCCCN)C(N)=O [L4, C16-KRKK-NH2] (Palmitoyl-KRKK-NH2)
HC50 [1]: 79.8 ± 9.0 µg/mL | MBIC C. lipolytica [2]: 16 µg/mL | MBIC S. aureus [3]: 16 µg/mL | MBIC S. epidermidis [4]: 8 µg/mL | MBIC P. aeruginosa [5]: 32 µg/mL | MBIC C. albicans [6]: 32 µg/mL | MBIC E. coli [7]: 32 µg/mL | MBIC C. tropicalis [8]: 8 µg/mL | MBIC C. glabrata [9]: 64 µg/mL | reduced retention time t’R [10]: 15.18 min

CCCCCCCCCCCCCCCC(=O)N[C@@H](CCCCN)C(=O)N[C@@H](CCCCN)C(=O)N[C@@H](CCCNC(=N)N)C(=O)N[C@@H](CCCCN)C(N)=O [L5, C16-KKRK-NH2] (Palmitoyl-KKRK-NH2)
HC50 [1]: 96.7 ± 1.4 µg/mL | MBIC C. lipolytica [2]: 32 µg/mL | MBIC S. aureus [3]: 32 µg/mL | MBIC S. epidermidis [4]: 16 µg/mL | MBIC P. aeruginosa [5]: 64 µg/mL | MBIC C. albicans [6]: 64 µg/mL | MBIC E. coli [7]: 32 µg/mL | MBIC C. tropicalis [8]: 16 µg/mL | MBIC C. glabrata [9]: 128 µg/mL | reduced retention time t’R [10]: 15.01 min

CCCCCCCCCCCCCCCC(=O)N[C@@H](CCCCN)C(=O)N[C@@H](CCCCN)C(=O)N[C@@H](CCCCN)C(=O)N[C@@H](CCCNC(=N)N)C(N)=O [L6, C16-KKKR-NH2] (Palmitoyl-KKKR-NH2)
HC50 [1]: 89.7 ± 2.4 µg/mL | MBIC C. lipolytica [2]: 32 µg/mL | MBIC S. aureus [3]: 32 µg/mL | MBIC S. epidermidis [4]: 8 µg/mL | MBIC P. aeruginosa [5]: 64 µg/mL | MBIC C. albicans [6]: 64 µg/mL | MBIC E. coli [7]: 32 µg/mL | MBIC C. tropicalis [8]: 16 µg/mL | MBIC C. glabrata [9]: 64 µg/mL | reduced retention time t’R [10]: 14.89 min

CCCCCCCCCCCCCCCC(=O)N[C@@H](CCCNC(=N)N)C(=O)N[C@@H](CCCNC(=N)N)C(=O)N[C@@H](CCCCN)C(=O)N[C@@H](CCCCN)C(N)=O [L7, C16-RRKK-NH2] (Palmitoyl-RRKK-NH2)
HC50 [1]: 65.4 ± 1.5 µg/mL | MBIC C. lipolytica [2]: 16 µg/mL | MBIC S. aureus [3]: 16 µg/mL | MBIC S. epidermidis [4]: 16 µg/mL | MBIC P. aeruginosa [5]: 64 µg/mL | MBIC C. albicans [6]: 32 µg/mL | MBIC E. coli [7]: 32 µg/mL | MBIC C. tropicalis [8]: 8 µg/mL | MBIC C. glabrata [9]: 32 µg/mL | reduced retention time t’R [10]: 15.58 min
